According to US11166894B2, “Shampoo compositions comprising a chelant” (The Procter & Gamble Company, priority 2016, dated 2021):
“Also recorded” adds a separate entry of the source.

What was measured:
[1] = Copper on hair after repeat shampoo wash cycles (ICP-OES), versus shampoo without chelant; details: for reduces copper by: shampoo composition containing 0.1 wt % chelant, 20 cleaning cycles, compared to shampoo without the chelant; for reduction/removal of copper on hair compared to shampoo without chelant (in words): 10 shampoo cycles; for reduction/removal of copper on hair compared to control shampoo (in words): 20 shampoo cycles, clarifying shampoo; for Copper Removing Performance from Shampoo: clarifying shampoo containing the chelant, 20 cycles, copper content of hair compared to shampoo without the chelant
Description: The copper removing performance of the shampoo composition is determined by treating hair with clarifying shampoo containing the corresponding chelant for 20 cycles and comparing the copper content of the hair compared to the same treatment using shampoo without the chelant.
(§1) All testing are performed on colored hair switches (see Method of Measurement of Copper on Hair below) weighing approximately […] and having a length of approximately 6 inches. The hair switches are commercially available from IHIP (International Hair Importers). Three hair switches per sampoo composition are used. An amount of […] of shampoo is spread via a syringe onto separate hair switch. That is, the dosage is 0.10 g of shampoo per g of hair. Each application consists of adding shampoo to the hair, milking for 30 seconds followed by rinsing for 30 seconds. Shampoo is then reapplied (0.1 g/g), milked for 30 seconds and rinsed for 30 seconds. Excess water is squeezed from the hair switches and left to air dry or treated with a rinse-off conditioner and/or a leave-on treatment composition. This protocol is repeated for a number of times/cycles (as indicated in the tables below, which describe the details of hair treatments).
The following test method is used to assess the ability of the compositions and regimens to remove copper from the hair and to inhibit copper deposition onto the hair.
Hair switches are colored once with an oxidative hair colorant. An extra blonde shade is used for the testing. The hair switches are washed for 10 or 20 repeat wash cycles in tap water containing 7 grains per gallon water hardness (Ca/Mg) and 0.06 μg/g copper ions. Each wash cycle consists of two applications of 0.1 g/g a shampoo to the hair switches. Each application consists of adding shampoo to the hair, milking for 30 secs followed by rinsing for 30 secs. Shampoo is then reapplied 0.1 g/g, milked for 30 secs, rinsed for 30 secs and then dried in a heat box (60° C.) until dry.
Samples of 100 mg of hair are digested overnight with 2 ml of high purity concentrated nitric acid. The digestive mixture also contains 150 μL of 100 μg/g Yttrium internal standard (Inorganic Ventures, Christianburg, Va., USA). Following digestion, samples are heated to 70-80° C. for one hour, cooled to room temperature and diluted to 15 mL with deionized water. Copper content of the hair switches is determined by inductively coupled plasma atomic spectroscopy (ICP-OES)). For each leg, 3 different samples are analyzed.
In order to minimize the variability of the resulting copper content on hair that is related to (a) lot-to-lot viariability due to hair switches and (b) day-to-day variability of the water used during shampoo and conditioner treatments, a single lot of hair switches is used for each experimental series and a separate control experiment/treatment is run for each experimental series (see below).

[2] = log P, n-octanol/water partition coefficient; format: physicochemical
From the text: The term log P is the n-octanol/water partition coefficients of the material.
The copper to be removed is inside the hair and the chelant needs to penetrate inside hair and form a strong copper-chelant complex. This copper-chelant complex needs to be water soluble and thus easily removed during the rinsing process. […] These are log P, the octanol/water partitioning coefficient, and the molecular weight of the chelant. Both are related to the ability of the chelant to penetrate into hair and also form a water soluble copper-chelant complex

[3] = Copper on hair after regimen cycles of shampoo, rinse-off conditioner and leave-on treatment (ICP-OES); details: 20 conditioning shampoo/rinse-off conditioner/leave-on treatment regimen cycles
Description: as §1
The following test method is used to assess the ability of the compositions and regimens to remove copper from the hair and to inhibit copper deposition onto the hair. […]
Samples of 100 mg of hair are digested overnight with 2 ml of high purity concentrated nitric acid. […] Copper content of the hair switches is determined by inductively coupled plasma atomic spectroscopy (ICP-OES)). For each leg, 3 different samples are analyzed. […]

[4] = log of formation constant of complex with copper; cited from earlier work

SMILES | logP [2] | reduction/removal of copper on hair compared to control shampoo (in words) [1] | Copper Removing Performance from Shampoo [1] | Log KML Cu [4] | other results
O=C(O)CN(CCO)CC(=O)O [N-(2-hydroxyethyl)iminodiacetic acid] |  |  |  |  | reduces copper by [1]: 30%
NCCNCCNCCN [2,3-Triethylenetetramine] | -2.3 | effective removal of copper from hair; also recorded: more effective treatements | 70% | 20.1 | reduction/removal of copper on hair compared to shampoo without chelant (in words) [1]: significant reduction of copper content on hair; removal of copper from hair compared to control regimen (in words) [3]: effective removal of copper from hair
O=C(O)CNCC(=O)O [iminodiacetic acid] |  |  |  |  | reduces copper by [1]: 40%
CC(O)CN(CCN(CC(C)O)CC(C)O)CC(C)O (stereo not shown) [Ethylenedinitrilotetrapropan-2-ol] |  | effective removal of copper from hair | 30% | 9.8 | Log P [2]: −0.2
OCCN(CCO)CCN(CCO)CCN(CCO)CCN(CCO)CCN(CCO)CCO [Tetraethylenepentaamine-(1-EO)] | -2.9 |  |  |  | 
CC(O)CN(CCN(CC(C)O)CC(C)O)CCN(CC(C)O)CC(C)O (stereo not shown) [Pentrol] |  |  |  |  | Log P [2]: −0.2

Further lines, with some results ahead:

logP [2] | SMILES | reduction/removal of copper on hair compared to control shampoo (in words) [1] | Copper Removing Performance from Shampoo [1] | Log KML Cu [4] | other results
-2.7 | NCCNCCNCCNCCN [2,4-Tetraethylenepentamine] | more effective treatements | 60% | 22.8 | 
-2.1 | NCCCNCCCNCCCN [1,5,9,13-Tetraazatridecane] |  | 15% | 17.1 | 
-2.2 | NCCN(CCN)CCN [Tris(2-aminoethyl)amine] |  | 45% | 18.8 | reduction/removal of copper on hair compared to shampoo without chelant (in words) [1]: effective removal of copper from hair
